# Laboratory results: PMC6100724, “Proteome‐wide analysis of phospho‐regulated PDZ domain interactions” (Molecular Systems Biology, 2018)
# Experiments:
# Experiment in all cases: Phosphomimetic ProP-PD selection with NGS
# Scribble PDZ1 = molecular target: T1, Scribble PDZ1 (Homo sapiens, UniProt Q14160); type: binding; details: bait Scribble PDZ1; mean of selections 1-3
# T1 construct: human Scribble PDZ1 aa 719–829 in; made in house; host or cells: E. coli BL21 Gold (DE3)
# Description: (§1) Phage selections were carried out for four rounds following a protocol by Huang and Sidhu (Huang & Sidhu, 2011) with minor modifications. Non‐specific binding phage was removed by pre‐selections against immobilized GST throughout the selection. The selections against the (pre‐)phosphorylated wild‐type library were performed in 50 mM HEPES (pH 7.4) and 150 mM NaCl (HBS) following the same procedure after pre‐phosphorylation of the library.
# (§2) • Immobilize proteins (15 μg in 100 μl PBS) in a 96‐well MaxiSorp microtiter plate (NUNC) overnight at 4°C. • Start a 2YT culture of E. coli Omnimax supplemented with 100 μg/ml tetracycline to retain the F pilus epitope. • Block the wells with 200 μl 0.5% BSA in PBS for 2 h at 4°C. • Precipitate naïve phage library (10^11 cfu per selection) or amplified phage pool from the previous round of selection by adding one‐fifth the volume of PEG/NaCl. • Incubate on ice for 10 min, and pellet precipitated phage by centrifugation at 5,300 g for 15 min. Resuspend the phage pellet in 100 μl PBS per selection. • Add 100 μl of phage solution to the GST‐coated pre‐selection wells and incubate for 1 h. • Transfer the phage solution to the immobilized target proteins and allow it to bind for 2 h at 8°C. • Wash the plate four times with 200 μl cold wash buffer (PBS, 0.05% Tween‐20). • Elute bound phage by incubation with 100 μl log phase (0.6–0.8 OD600) E. coli Omnimax for 30 min at 37°C with shaking (200 RPM). • Add 10^12 cfu/ml M13K07 helper phage for hyperinfection of the bacteria and incubate as above for 45 min. • Transfer the bacterial culture to 10 ml 2YT supplemented with 50 μg/ml carbenicillin, 25 μg/ml kanamycin, and 300 μM IPTG and incubate overnight at 37°C while shaking. • Perform phage pool ELISA to monitor the progress of the selection as described previously (Huang & Sidhu, 2011).
# (§3) The naïve library and the enriched phage pools of the third day of selection were amplified and barcoded by PCR and analyzed by NGS as described elsewhere (McLaughlin & Sidhu, 2013; Ivarsson et al, 2014). The reads were demultiplexed using the barcode sequences and filtered by discarding sequences with a Phred quality score under 30. Sequences were mapped to the original library using Bowtie (Langmead et al, 2009) with two mismatches between reads and library sequence. Nucleotide mutations leading to amino acid substitutions were subsequently removed. Cutoff values of NGS counts were assigned for each pool. PWMs were generated based on the remaining peptides (aligned on the C‐termini) using WebLogo (Crooks et al, 2004).
# (§4) However, there was no significant correlation of the actual read counts (selection “strength”) and the initial representation in the library, reflecting the strong selection during phage display (wt+mimetic: P‐value: 0.49, ρ = −0.08, mimetic only: P‐value: 0.069, ρ = −0.2, wt only: P‐value: 0.12, ρ = 0.17). Consequently, the amount of reads for each binder after phage display is not a function of the amount of input reads in the naïve library and no modeling based on the input library frequencies to score the interactions is necessary. To allow for comparison between replicate selections, we used the fraction of NGS reads within a certain set, instead of the absolute number of NGS reads, as the absolute numbers differ between different NGS batches.
# DLG1 PDZ2 = molecular target: T2, DLG1 PDZ2 (Homo sapiens, UniProt Q12959); type: binding; details: mean of selections 1-3, bait DLG1 PDZ2
# T2 construct: human DLG1 PDZ2 aa 311–407 in a modified pRSET vector 40; made in house; host or cells: E. coli BL21 Gold (DE3)
# Description: as §1, §2, §3, §4
# Scribble PDZ3 = type: binding, human; details: mean over selections 1-3; bait Scribble PDZ3
# Description: as §1, §2, §3, §4
# DLG1 PDZ1 = type: binding, human; details: mean of selections 1-3, bait DLG1 PDZ1; for Mean fraction #NGS counts mimetic peptide / total count selection: phosphomimetic peptide; for Mean fraction #NGS counts wt peptide / total counts selection: wild type peptide
# Description: as §1, §2, §3, §4
# Scribble PDZ2 = type: binding, human; details: bait Scribble PDZ2
# Description: as §1, §2, §3, §4
# [1] = mean of selections 1 and 2 (selection 3 empty)
# T1 sequence (Q14160 719-829): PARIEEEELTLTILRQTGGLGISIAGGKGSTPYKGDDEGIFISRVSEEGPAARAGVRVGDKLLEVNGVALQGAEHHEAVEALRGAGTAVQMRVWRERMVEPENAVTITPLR
# T2 sequence (Q12959 311-407): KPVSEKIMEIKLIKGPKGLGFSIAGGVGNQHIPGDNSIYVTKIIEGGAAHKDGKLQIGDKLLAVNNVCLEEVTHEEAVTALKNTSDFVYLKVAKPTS
sequence,measurement,setting,value
ARVSKEEPL,Mean fraction #NGS counts mimetic peptide / total count selection,Scribble PDZ1,1.46e-5
same,Mean fraction #NGS counts mimetic peptide / total count selection,DLG1 PDZ2,0
same,Mean fraction #NGS counts mimetic peptide / total count selection,Scribble PDZ3,0
ARVSKETPL,Mean fraction #NGS counts wt peptide / total counts selection,Scribble PDZ1,0.07558
same,Mean fraction #NGS counts wt peptide / total counts selection,DLG1 PDZ2,0.002959
same,Mean fraction #NGS counts wt peptide / total counts selection,Scribble PDZ3,0.1287
ASEPGGTVV,Mean fraction #NGS counts mimetic peptide / total count selection,DLG1 PDZ1,0
ASSPGGTVV,Mean fraction #NGS counts wt peptide / total counts selection,DLG1 PDZ1,2.813e-5
EARLWETSI,Mean fraction #NGS counts mimetic peptide / total count selection,Scribble PDZ1,0.0002246
same,Mean fraction #NGS counts mimetic peptide / total count selection,Scribble PDZ3,0.01196
same,Mean fraction #NGS counts mimetic peptide / total count selection,DLG1 PDZ1,3.0718e-6
EEREVTTYL,Mean fraction #NGS counts mimetic peptide / total count selection,Scribble PDZ1,0.0003719
same,Mean fraction #NGS counts mimetic peptide / total count selection,Scribble PDZ3,0.000214
same,Mean fraction #NGS counts mimetic peptide / total count selection,DLG1 PDZ1,3.309e-5
EGSYLVTSV,Mean fraction #NGS counts mimetic peptide / total count selection,Scribble PDZ1,1.46e-5
same,Mean fraction #NGS counts mimetic peptide / total count selection,DLG1 PDZ2; phosphomimetic peptide,0.0002179
ERLRVEEDV,Mean fraction #NGS counts mimetic peptide / total count selection,DLG1 PDZ2,0
same,Mean fraction #NGS counts mimetic peptide / total count selection,Scribble PDZ3,0
same,Mean fraction #NGS counts mimetic peptide / total count selection,DLG1 PDZ1,0
ERLRVETDV,Mean fraction #NGS counts wt peptide / total counts selection,DLG1 PDZ2,0.00089
same,Mean fraction #NGS counts wt peptide / total counts selection,Scribble PDZ3,0.0002834
same,Mean fraction #NGS counts wt peptide / total counts selection,DLG1 PDZ1,0.0001761
ESGSQHTNV,Mean fraction #NGS counts mimetic peptide / total count selection,DLG1 PDZ1,0
ESREVTTYL,Mean fraction #NGS counts wt peptide / total counts selection,Scribble PDZ1,2.8202e-5
same,Mean fraction #NGS counts wt peptide / total counts selection,Scribble PDZ3,5.004e-5
same,Mean fraction #NGS counts wt peptide / total counts selection,DLG1 PDZ1,0
GELALLTKL,Mean fraction #NGS counts mimetic peptide / total count selection,Scribble PDZ1,0.0001134
same,Mean fraction #NGS counts mimetic peptide / total count selection,DLG1 PDZ1,1.514e-5
GSLALLTKL,Mean fraction #NGS counts wt peptide / total counts selection,Scribble PDZ1,0
same,Mean fraction #NGS counts wt peptide / total counts selection,DLG1 PDZ1,0
KLESIESDV,Mean fraction #NGS counts mimetic peptide / total count selection,DLG1 PDZ1,0
KLSSIESDV,Mean fraction #NGS counts wt peptide / total counts selection,DLG1 PDZ2,0.003213
same,Mean fraction #NGS counts wt peptide / total counts selection,Scribble PDZ3,0.0003618
same,Mean fraction #NGS counts wt peptide / total counts selection,DLG1 PDZ1,2.936e-5
KPERISTVV,Mean fraction #NGS counts mimetic peptide / total count selection,DLG1 PDZ2; phosphomimetic peptide,0.001492
same,Mean fraction #NGS counts mimetic peptide / total count selection,DLG1 PDZ1,0.0005714
KPSRISTVV,Mean fraction #NGS counts wt peptide / total counts selection,DLG1 PDZ2; wild type peptide,2.5129e-5
same,Mean fraction #NGS counts wt peptide / total counts selection,DLG1 PDZ1,0
KYDKELEPV,Mean fraction #NGS counts mimetic peptide / total count selection,DLG1 PDZ1,0.003147
KYDKELTPV,Mean fraction #NGS counts wt peptide / total counts selection,DLG1 PDZ1,1.185e-6
MRLQSETEV,Mean fraction #NGS counts mimetic peptide / total count selection,DLG1 PDZ2,0.0002982
same,Mean fraction #NGS counts mimetic peptide / total count selection,DLG1 PDZ1,3.405e-5
MRLQSETSV,Mean fraction #NGS counts wt peptide / total counts selection,DLG1 PDZ2,5.408e-5
same,Mean fraction #NGS counts wt peptide / total counts selection,DLG1 PDZ1,1.185e-6
QEELKLSNL,Mean fraction #NGS counts mimetic peptide / total count selection,Scribble PDZ2; [1],0.0005697
QSELKLSNL,Mean fraction #NGS counts wt peptide / total counts selection,Scribble PDZ2; [1],0.0009495
RGLESATEL,Mean fraction #NGS counts mimetic peptide / total count selection,Scribble PDZ2; mean over selections,0.001519
RGLESATSL,Mean fraction #NGS counts wt peptide / total counts selection,Scribble PDZ2; mean over selections,0
RIESLESEV,Mean fraction #NGS counts mimetic peptide / total count selection,DLG1 PDZ2; phosphomimetic peptide,0.000103
same,Mean fraction #NGS counts mimetic peptide / total count selection,DLG1 PDZ1,1.703e-5
RISSLESEV,Mean fraction #NGS counts wt peptide / total counts selection,DLG1 PDZ2; wild type peptide,0.00571
same,Mean fraction #NGS counts wt peptide / total counts selection,DLG1 PDZ1,0.0001168
RREEYSTTV,Mean fraction #NGS counts mimetic peptide / total count selection,DLG1 PDZ2,1.723e-5
same,Mean fraction #NGS counts mimetic peptide / total count selection,DLG1 PDZ1,1.94e-5
RRESYSTTV,Mean fraction #NGS counts wt peptide / total counts selection,DLG1 PDZ2,0.0006987
same,Mean fraction #NGS counts wt peptide / total counts selection,DLG1 PDZ1,0.005493
